Data as given in ChEMBL document CHEMBL1201862, “PubChem BioAssay data set” (2004).
The source made the active and inactive calls.

Legend:
[1] = THP-1 cell cytotoxicity, dose response, cytotoxicity control for non-replicating M. tuberculosis project (AID 489025); type: functional
[2] = Vero E6 cell cytotoxicity, dose response, cytotoxicity control for non-replicating M. tuberculosis project, secondary assay (AID 492998); type: functional, VeroE6; conditions: Vero C1008
cells [3] = type: functional
[4] = biological target: SWI/SNF-related matrix-associated actin-dependent regulator of chromatin subfamily A member 2 (Homo sapiens, UniProt P51531); experiment: Luminescence-based cell-based high throughput dose response assay to identify activators of the function of SWI/SNF related, matrix associated, actin dependent regulator of chromatin, subfamily a, member 2 (SMARCA2, BRM).; type: functional
[5] = Counterscreen for activators of the function of SWI/SNF related, matrix associated, actin dependent regulator of chromatin, subfamily a, member 2 (SMARCA2, BRM): Luminescence-based cell-based high throughput dose response assay to identify non-selective compounds using the VP16 reporter assay.; type: functional
SUMO E1/E2 = SUMO E1/E2 (Homo sapiens, UniProt P63279+Q9UBE0+Q9UBT2); experiment: SAR analysis of SUMOylation using HTRF in an in-Vitro dose response assay. [Related pubchem assays (depositor defined):AID2006, AID2011, AID2018, AID2069, AID2658]; type: functional
Exodeoxyribonuclease V = biological target: T1, Exodeoxyribonuclease V (Escherichia coli (strain K12), UniProt P04993+P07648+P08394); experiment: RecBCD inhibition via phage-restricted bacterial growth – absorbance, V66 E. coli, mutant T4 phage, counter-screen for AddAB inhibitor project, dose response (AID 492957); type: functional, cell-based, Escherichia coli str. K-12 substr. MG1655
T1 sequence (P04993 whole entry): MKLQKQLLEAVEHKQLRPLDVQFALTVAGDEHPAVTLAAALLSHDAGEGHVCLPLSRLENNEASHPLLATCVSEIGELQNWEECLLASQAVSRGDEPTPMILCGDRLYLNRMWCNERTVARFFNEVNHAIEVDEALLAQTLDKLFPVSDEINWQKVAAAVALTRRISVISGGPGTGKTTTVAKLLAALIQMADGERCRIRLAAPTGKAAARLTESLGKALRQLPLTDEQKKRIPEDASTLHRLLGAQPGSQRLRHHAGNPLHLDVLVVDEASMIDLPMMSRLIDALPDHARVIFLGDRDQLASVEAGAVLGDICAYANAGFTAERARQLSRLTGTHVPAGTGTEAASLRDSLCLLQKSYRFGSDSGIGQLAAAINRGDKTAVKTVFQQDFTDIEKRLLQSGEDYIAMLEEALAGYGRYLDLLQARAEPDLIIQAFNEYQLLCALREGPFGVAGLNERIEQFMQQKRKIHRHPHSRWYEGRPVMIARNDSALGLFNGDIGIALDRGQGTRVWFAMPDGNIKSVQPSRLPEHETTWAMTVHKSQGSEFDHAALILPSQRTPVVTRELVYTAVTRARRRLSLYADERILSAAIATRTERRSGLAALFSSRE
T1 sequence (P07648 whole entry): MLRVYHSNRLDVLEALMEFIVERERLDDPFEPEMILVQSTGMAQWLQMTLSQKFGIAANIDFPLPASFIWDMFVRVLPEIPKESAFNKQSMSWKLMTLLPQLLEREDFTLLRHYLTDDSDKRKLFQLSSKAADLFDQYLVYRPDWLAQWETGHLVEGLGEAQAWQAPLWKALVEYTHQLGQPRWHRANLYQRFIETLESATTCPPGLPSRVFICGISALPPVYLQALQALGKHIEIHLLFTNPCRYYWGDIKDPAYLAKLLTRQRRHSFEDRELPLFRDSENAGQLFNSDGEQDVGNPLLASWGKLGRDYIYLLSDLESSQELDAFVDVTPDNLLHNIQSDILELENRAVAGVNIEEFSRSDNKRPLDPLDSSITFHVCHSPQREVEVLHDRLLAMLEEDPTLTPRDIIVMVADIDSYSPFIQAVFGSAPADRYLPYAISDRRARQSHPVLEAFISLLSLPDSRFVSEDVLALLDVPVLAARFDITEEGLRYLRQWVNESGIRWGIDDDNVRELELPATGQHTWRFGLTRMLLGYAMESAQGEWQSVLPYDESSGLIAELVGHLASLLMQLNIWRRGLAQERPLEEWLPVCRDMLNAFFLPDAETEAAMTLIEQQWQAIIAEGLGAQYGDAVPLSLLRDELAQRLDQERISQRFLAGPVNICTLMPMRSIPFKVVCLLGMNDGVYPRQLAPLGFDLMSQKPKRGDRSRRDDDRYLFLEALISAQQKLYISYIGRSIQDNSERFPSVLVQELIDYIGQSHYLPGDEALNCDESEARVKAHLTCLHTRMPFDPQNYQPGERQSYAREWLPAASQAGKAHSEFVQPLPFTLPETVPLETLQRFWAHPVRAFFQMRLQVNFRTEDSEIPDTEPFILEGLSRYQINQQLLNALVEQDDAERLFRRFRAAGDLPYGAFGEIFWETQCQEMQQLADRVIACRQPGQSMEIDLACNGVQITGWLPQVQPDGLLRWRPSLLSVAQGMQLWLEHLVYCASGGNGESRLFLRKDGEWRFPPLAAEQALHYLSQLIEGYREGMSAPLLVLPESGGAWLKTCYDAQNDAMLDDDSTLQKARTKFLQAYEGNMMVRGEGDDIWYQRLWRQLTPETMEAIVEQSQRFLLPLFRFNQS
T1 sequence (P08394 whole entry): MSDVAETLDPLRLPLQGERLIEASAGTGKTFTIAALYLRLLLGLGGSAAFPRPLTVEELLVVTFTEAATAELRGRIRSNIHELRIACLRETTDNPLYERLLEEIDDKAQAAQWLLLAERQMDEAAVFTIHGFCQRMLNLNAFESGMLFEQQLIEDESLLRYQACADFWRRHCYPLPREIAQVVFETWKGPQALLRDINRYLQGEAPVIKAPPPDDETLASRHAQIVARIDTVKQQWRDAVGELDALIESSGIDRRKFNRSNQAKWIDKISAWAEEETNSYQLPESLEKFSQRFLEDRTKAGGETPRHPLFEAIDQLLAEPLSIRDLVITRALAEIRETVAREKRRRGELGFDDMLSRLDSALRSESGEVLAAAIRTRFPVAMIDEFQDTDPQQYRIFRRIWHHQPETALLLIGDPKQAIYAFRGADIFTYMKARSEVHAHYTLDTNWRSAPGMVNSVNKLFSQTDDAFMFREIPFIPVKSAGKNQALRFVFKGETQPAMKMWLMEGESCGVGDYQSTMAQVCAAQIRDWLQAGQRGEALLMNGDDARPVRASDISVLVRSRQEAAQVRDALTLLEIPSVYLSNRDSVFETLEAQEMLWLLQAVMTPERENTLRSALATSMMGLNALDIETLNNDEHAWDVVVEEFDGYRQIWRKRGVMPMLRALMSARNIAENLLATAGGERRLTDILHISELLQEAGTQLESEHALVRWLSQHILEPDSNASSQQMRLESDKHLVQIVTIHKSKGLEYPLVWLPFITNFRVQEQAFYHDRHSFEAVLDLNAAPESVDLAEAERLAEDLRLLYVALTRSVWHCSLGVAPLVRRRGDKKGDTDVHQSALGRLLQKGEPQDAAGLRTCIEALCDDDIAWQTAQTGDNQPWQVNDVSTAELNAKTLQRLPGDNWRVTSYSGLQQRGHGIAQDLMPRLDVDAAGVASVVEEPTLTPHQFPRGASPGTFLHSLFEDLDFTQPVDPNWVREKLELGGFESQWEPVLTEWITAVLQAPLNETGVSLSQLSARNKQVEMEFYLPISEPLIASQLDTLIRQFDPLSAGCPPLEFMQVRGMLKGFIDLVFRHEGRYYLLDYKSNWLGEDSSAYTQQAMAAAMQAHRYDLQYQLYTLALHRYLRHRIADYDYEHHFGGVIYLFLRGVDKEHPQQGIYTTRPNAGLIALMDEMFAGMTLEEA

[6] = Counterscreen for AddAB inhibitors: absorbance-based bacterial cell-based high throughput dose response assay for inhibitors of bacterial viability. [Related pubchem assays (depositor defined):AID435030, AID449728, AID449731, AID488942, AID488955, AID488956]; type: functional
[7] = biological target: Delta-type opioid receptor (Homo sapiens, UniProt P41143); experiment: Counterscreen for agonists of heterodimerization of the mu 1 (OPRM1) and delta 1 (OPRD1) opioid receptors: Luminescence-based cell-based high throughput dose response assay to identify agonists of OPRD1 homodimerization. [Related pubchem assays (depositor defined):AID504326, AID504355, AID504692, AID504904, AID504905]; type: functional
Mu-type opioid receptor = Mu-type opioid receptor (Homo sapiens, UniProt P35372); experiment: Counterscreen for agonists of heterodimerization of the mu 1 (OPRM1) and delta 1 (OPRD1) opioid receptors: Luminescence-based cell-based high throughput dose response assay to identify agonists of OPRM1 homodimerization.; type: functional;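 note: U2OS cells expressing OPRM1 and beta-arrestin as split beta-galactosidase partners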
[8] = biological target: 5-hydroxytryptamine receptor 5A (Homo sapiens, UniProt P47898); experiment: Counterscreen for agonists of OPRM1-OPRD1 heterodimerization: luminescence-based cell-based high throughput dose response assay to identify agonists of 5-hydroxytryptamine (serotonin) 5A receptor (HTR5A). [Related pubchem assays (depositor defined):AID504326, AID504355, AID504692, AID504904, AID504905]; type: functional
Cytochrome P450 3A4 = Cytochrome P450 3A4 (Homo sapiens, UniProt P08684);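 note: CYP3A4 tested as one member of a cytochrome P450 panel screen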
Cytochrome P450 2D6 = Cytochrome P450 2D6 (Homo sapiens, UniProt P10635);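 note: CYP2D6 member of a cytochrome P450 panel assay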
Cytochrome P450 2C9 = Cytochrome P450 2C9 (Homo sapiens, UniProt P11712)
Cytochrome P450 2C19 = Cytochrome P450 2C19 (Homo sapiens, UniProt P33261); experiment: Cytochrome panel assay with activity outcomes. Panel member name: p450-cyp2c19 Compounds with AC50 equal or less than 10 uM are considered active; type: functional; conditions: read-out: AC50
[9] = luciferase reporter signal suppression in cells – H4 neuroglioma cells, luminescence, dose response (AID 1990); type: functional, cell-based
cells [10] = type: functional, cell-based
[11] = Luminescence Cell-Based Dose Response HTS to Identify Inhibitors of 5'UTR Stem-Loop Driven Prion Protein mRNA Translation in H4 Neuroglioblastoma Cells. [Related pubchem assays: 1827 (Project Summary), 1813 (Primary HTS)]; type: functional
[12] = alpha-synuclein stem-loop luciferase translation blockers – H4 neuroglioma cells, luminescence, confirmation (AID 1988); type: functional, cell-based
cells [13] = type: functional, cell-based; remark: listed apart in the source
HEK293 [14] = experiment: cells; conditions: Homo sapiens
HEK293 [15] = experiment: cells; conditions: Homo sapiens; remark: listed apart in the source
[16] = Trypanosoma cruzi growth suppression in host cells – NIH3T3 host cells, beta-gal luminescence, confirmation (AID 2044); type: functional, cell-based;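 note: intracellular parasites grown in NIH/3T3 mouse fibroblasts as host cells; luminescent beta-galactosidase reporter signal from transgenic T. cruzi replicating inside host cells; inhibitors lower the luminescence signal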
[17] = NIH3T3 cell viability loss – ATP luminescence, mouse fibroblasts, counter-screen, dose response (AID 2010); type: functional, cell-based;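 note: cells exposed to compound for about 90 hours before reading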
INS1 = experiment: INS-1E survival protection against cytokine death – cell-based, luminescence, retest, dose response (AID 449756); type: functional; conditions: Rattus norvegicus;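 note: cell death triggered by IL-1 beta plus TNF-alpha plus IFN-gamma mixture; protective hits raise ATP signal compared with cytokine alone wells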

Chain of SUMO E1/E2 (Q9UBE0 whole entry): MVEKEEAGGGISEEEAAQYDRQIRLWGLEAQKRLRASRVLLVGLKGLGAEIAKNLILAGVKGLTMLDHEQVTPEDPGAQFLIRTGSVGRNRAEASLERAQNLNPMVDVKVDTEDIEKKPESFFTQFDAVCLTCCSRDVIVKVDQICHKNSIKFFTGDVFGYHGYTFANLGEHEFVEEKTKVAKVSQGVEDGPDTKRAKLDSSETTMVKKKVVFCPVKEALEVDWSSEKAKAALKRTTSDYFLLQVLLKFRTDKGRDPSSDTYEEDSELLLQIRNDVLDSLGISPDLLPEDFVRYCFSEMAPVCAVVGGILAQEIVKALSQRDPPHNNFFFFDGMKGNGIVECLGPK
Chain of SUMO E1/E2 (Q9UBT2 whole entry): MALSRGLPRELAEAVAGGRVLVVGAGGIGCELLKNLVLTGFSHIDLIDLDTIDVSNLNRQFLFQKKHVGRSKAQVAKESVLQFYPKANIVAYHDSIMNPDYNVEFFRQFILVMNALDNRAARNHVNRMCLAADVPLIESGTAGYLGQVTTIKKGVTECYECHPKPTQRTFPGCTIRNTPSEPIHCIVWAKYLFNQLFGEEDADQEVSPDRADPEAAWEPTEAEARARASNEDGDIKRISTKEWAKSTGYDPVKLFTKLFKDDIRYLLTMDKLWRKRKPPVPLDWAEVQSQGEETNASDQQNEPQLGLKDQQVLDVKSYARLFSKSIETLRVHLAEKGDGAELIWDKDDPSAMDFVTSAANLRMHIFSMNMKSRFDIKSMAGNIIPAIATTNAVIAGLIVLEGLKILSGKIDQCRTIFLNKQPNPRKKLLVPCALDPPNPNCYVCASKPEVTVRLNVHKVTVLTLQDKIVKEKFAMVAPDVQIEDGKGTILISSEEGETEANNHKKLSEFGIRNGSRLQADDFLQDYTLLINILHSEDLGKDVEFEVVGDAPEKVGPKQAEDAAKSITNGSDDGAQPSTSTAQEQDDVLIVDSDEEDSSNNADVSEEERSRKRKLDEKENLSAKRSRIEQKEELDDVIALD
Chain of SUMO E1/E2 (P63279 whole entry): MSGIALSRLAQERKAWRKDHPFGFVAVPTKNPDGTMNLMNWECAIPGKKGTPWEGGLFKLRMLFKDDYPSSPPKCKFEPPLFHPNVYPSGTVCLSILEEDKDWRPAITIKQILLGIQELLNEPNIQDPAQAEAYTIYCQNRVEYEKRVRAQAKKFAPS
Chain of Cytochrome P450 2D6 (P10635 whole entry): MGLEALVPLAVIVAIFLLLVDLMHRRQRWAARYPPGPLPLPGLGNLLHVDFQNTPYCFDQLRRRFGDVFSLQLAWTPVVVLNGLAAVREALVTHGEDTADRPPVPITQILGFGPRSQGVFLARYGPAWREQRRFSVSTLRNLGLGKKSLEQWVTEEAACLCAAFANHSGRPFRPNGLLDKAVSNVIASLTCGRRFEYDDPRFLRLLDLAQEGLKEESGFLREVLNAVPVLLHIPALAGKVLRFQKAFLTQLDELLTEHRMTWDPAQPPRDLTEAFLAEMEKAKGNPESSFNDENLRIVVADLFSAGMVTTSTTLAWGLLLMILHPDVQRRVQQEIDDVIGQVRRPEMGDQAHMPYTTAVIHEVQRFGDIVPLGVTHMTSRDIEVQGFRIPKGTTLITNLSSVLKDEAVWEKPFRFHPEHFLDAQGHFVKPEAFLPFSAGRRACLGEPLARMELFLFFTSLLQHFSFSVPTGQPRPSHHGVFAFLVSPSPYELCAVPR
Chain of Mu-type opioid receptor (P35372 whole entry): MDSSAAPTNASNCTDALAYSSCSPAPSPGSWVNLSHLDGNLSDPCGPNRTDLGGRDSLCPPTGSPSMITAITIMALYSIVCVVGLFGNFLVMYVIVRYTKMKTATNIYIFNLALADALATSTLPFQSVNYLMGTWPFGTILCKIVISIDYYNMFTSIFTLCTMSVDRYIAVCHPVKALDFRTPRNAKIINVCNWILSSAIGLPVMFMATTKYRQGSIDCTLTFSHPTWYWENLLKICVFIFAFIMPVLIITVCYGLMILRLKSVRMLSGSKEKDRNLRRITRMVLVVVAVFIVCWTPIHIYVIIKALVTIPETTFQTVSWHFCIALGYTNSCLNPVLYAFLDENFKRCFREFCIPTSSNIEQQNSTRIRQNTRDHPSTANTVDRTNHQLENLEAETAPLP
Chain of Cytochrome P450 2C9 (P11712 whole entry): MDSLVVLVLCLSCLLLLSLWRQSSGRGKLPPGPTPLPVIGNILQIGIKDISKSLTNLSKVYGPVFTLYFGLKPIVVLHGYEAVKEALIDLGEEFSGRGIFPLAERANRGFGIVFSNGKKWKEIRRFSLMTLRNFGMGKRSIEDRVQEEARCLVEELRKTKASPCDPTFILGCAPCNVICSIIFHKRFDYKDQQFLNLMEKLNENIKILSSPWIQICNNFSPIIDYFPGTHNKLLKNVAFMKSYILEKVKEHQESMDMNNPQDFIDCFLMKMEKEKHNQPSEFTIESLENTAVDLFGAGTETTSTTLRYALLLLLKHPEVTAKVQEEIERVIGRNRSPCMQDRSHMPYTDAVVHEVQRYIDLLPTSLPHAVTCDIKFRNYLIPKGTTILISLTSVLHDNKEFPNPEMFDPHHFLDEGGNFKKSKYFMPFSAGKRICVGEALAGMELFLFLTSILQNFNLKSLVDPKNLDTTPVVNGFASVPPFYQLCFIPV
Chain of Cytochrome P450 2C19 (P33261 whole entry): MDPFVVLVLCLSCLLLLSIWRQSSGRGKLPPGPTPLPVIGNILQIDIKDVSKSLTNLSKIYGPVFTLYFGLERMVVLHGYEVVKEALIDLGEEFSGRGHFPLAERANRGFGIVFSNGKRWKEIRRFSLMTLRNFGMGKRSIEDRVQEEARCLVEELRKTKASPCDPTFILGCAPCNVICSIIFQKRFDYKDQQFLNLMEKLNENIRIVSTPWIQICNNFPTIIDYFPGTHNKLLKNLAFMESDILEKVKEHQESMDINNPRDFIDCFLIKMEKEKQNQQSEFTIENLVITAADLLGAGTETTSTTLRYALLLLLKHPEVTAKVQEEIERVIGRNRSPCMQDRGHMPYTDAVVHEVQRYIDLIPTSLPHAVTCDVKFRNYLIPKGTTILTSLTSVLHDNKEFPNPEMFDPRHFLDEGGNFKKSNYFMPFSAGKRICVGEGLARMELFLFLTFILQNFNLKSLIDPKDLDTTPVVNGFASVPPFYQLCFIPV
Chain of 5-hydroxytryptamine receptor 5A (P47898 whole entry): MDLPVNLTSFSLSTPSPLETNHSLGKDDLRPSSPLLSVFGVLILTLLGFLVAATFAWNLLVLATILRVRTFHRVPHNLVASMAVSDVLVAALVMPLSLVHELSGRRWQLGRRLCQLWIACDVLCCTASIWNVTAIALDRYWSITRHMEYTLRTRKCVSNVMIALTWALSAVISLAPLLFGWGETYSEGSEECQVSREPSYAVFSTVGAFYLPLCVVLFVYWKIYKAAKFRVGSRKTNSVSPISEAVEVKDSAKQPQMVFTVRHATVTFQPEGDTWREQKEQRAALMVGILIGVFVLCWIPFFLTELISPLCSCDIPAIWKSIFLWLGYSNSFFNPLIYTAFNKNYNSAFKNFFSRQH
Chain of Cytochrome P450 3A4 (P08684 whole entry): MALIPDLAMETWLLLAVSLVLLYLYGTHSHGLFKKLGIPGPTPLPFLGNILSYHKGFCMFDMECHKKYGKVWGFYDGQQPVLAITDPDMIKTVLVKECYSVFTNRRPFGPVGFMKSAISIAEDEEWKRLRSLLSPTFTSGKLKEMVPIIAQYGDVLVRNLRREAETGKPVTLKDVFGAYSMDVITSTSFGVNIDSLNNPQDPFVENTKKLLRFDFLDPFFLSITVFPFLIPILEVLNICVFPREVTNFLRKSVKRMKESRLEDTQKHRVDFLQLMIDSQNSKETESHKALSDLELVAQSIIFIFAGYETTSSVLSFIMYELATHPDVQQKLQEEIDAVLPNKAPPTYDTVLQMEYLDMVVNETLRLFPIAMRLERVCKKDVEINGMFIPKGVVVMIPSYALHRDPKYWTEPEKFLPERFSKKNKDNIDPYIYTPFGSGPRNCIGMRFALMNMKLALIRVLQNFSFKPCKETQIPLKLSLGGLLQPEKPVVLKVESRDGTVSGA
Chain of Delta-type opioid receptor (P41143 whole entry): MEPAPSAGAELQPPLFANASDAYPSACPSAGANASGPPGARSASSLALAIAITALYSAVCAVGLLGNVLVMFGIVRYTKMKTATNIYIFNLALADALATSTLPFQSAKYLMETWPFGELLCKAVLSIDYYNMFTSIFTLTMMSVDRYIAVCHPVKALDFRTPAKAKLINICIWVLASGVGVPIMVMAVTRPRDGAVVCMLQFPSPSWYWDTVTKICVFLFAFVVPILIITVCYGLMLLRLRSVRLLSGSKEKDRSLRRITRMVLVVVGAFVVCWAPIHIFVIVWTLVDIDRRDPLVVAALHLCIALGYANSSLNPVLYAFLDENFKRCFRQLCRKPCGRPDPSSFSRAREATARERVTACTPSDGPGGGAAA

Which results are given for `CCS(=O)(=O)c1c([N+](=O)[O-])ncn1C`?
CC50 [1]: > 40 µM (active); CC50 [2]: > 20 µM (active); IC50 (cells [3]): 16.2 µM (active); EC50 [4]: > 91.1 µM (inactive); EC50 [5]: > 91.1 µM (inactive)

With `Cc1ccc(C=Nc2ccccc2C(N)=O)s1` as the molecule, how does the IC50 (SUMO E1/E2) read?
Its IC50 is 22.2 µM (active).

With `Cc1c(Br)c([N+](=O)[O-])nn1C(C)C(=O)NCc1ccco1` (stereo unspecified) as the molecule, how does the IC50 (Exodeoxyribonuclease V) read?
The IC50 was > 119 µM (inactive).

What about the IC50 [6] of the same molecule?
The IC50 was > 119 µM (inactive).

What does the source list for `CCNS(=O)(=O)c1ccc(NC(=O)Nc2ccc3c(c2)OCO3)cc1`?
EC50 [7]: > 92.5 µM (inactive); EC50 (Mu-type opioid receptor): 42.8 µM (inactive); EC50 [8]: > 92.5 µM (inactive)

With `O=C(NC(NC(=S)Nc1ccc(Cl)cc1)C(Cl)(Cl)Cl)c1ccco1` (stereo unspecified) as the molecule, how does the IC50 (Exodeoxyribonuclease V) read?
The IC50 was > 119 µM (inactive).

And the IC50 [6]?
Its IC50 is > 119 µM (inactive).

For `CCOC(=O)c1c(C)c(C(=O)NCCN2CCOCC2)c(C)n1CC`, which AC50 (Cytochrome P450 3A4) is on record?
Its AC50 is 25.1 µM (inconclusive).

What about the AC50 (Cytochrome P450 2D6) of the same molecule?
Its AC50 is “inconclusive”.

And the AC50 (Cytochrome P450 2C9)?
The AC50 was “inconclusive”.

Which results are given for `NC(=O)/C(=N\O)c1ccccc1`?
AC50 (Cytochrome P450 2C19): 0.00562 µM (inconclusive); AC50 (Cytochrome P450 2D6): inconclusive

For `Fc1ccc(C2Nc3ccccc3C3C=CCC32)cc1` (stereo unspecified), which IC50 (SUMO E1/E2) is on record?
The IC50 was > 100 µM (inactive).

What does the source list for `CC(=O)Nc1nc2ccccc2n1CCOc1ccccc1Cl`?
EC50 [9]: 16.7 µM (active); EC50 (cells [10]): > 350 µM (not active); EC50 [11]: > 120 µM (not active); EC50 [12]: > 120 µM (not active); EC50 (cells [13]): 56.5 µM (active); CC50 [1]: > 40 µM (active); CC50 [2]: 17.5 µM (active); IC50 (cells [3]): 2.72 µM (active)

Which results are given for `CN(C)C(=S)N=c1ssc(=S)n1Cc1ccco1`?
EC50 (HEK293 [14]): > 59.6 µM (inactive); EC50 (HEK293 [15]): > 59.6 µM (inactive)

Which EC50 (cells [10]) does the source give for `Cc1cc(N/N=C/c2ccc(O)cc2O)nc(-c2ccccc2O)n1` here?
The EC50 was > 350 µM (not active).

What about the EC50 [16] of the same molecule?
Its EC50 is 1.16 µM (active).

What about the EC50 (cells [13]) of the same molecule?
Its EC50 is 8.62 µM (active).

And the EC50 [17]?
The EC50 was 4.8 µM (active).

And the IC50 (Exodeoxyribonuclease V)?
Its IC50 is > 119 µM (inactive).

And the IC50 [6]?
Its IC50 is > 119 µM (inactive).

What about the AC50 (INS1) of the same molecule?
The AC50 was 0.734 µM (active).
